# Source: patent US6245917A, “Crystalline sodium phenytoin monohydrate” (Warner-Lambert Company, priority 1999, dated 2001)
# Key:
# [1] = Intrinsic dissolution in 90% ethanol/10% water; format: physicochemical; conditions: for concentration, average: average of runs
# Method: (§1) Dissolutions were carried out in a standard Van-Kel dissolution bath. The medium was either water, 90% water/10% ethanol, or 95% water/5% ethanol. For nonintrinsic dissolution experiments, SPM and SPA powders were sieved and fractions that passed through a 75 μm sieve were used. For intrinsic dissolution experiments, tablets were prepared in a standard Woods apparatus by compression of 400 mg of material at 3000 psig for 1 minute.
# (§2) Each experiment was carried out by placing 900 mL of medium into one of the Van-Kel dissolution vessels and allowing it to equilibrate at 37° C. The test materials were added (powder or tablet) and samples were withdrawn by syringe at the specified times (see Table 4). Each sample was filtered through a 0.2μ nylon syringe filter. Three dissolution experiments were carried out for each lot of suspension.
# (§3) For intrinsic dissolution experiments, the test material is compressed into a tablet and the tablet (still in the die) is lowered into the dissolution medium. In this way, a consistent surface area, the tablet face, is presented to the medium. […] Therefore, tablets of SPM and SPA were prepared, removed from the die, crushed into powders, and examined by XRPD.
# Intrinsic dissolution experiments were then carried out in 90% ethanol/10% water. The tablets dissolved very quickly in this medium, resulting in rapid deformation of the tablet faces. Occasionally pieces of solid broke free of the tablets and sank to the bottom of the dissolution vessel. Within 15-40 minutes the tablets had dissolved completely. Because of this behavior, consistent surface areas were not maintained during the course of the experiments. The result was a high degree of imprecision in the concentrations measured (Table 6).
# (§4) Samples were analyzed by high-performance liquid chromatography (HPLC) on a BAS 480 HPLC system equipped with a UV/VIS detector and a TSP AS 100 autosampler, and controlled with INJECT software. A Phenomenex Hypersil C18 BDS column (5μ particle size, 4.6×150 mm) was used. The mobile phase was prepared by mixing water, methanol, and acetic acid in a 60:40:0.5 volume ratio. Analyses were carried out at a flow rate of 1 mL/minute with the UV/VIS detector set at 254 nm. The injection volume was 5 μL.
# (§5) A standard solution consisting of 74.8 μg/mL of sodium phenytoin in mobile phase was injected three times before and three times after each series of analyses. Each unknown sample was injected three times without dilution. The peak areas at 254 nm were recorded and averaged for each time point. The amount of sodium phenytoin in solution at each time point was calculated from the line equation of the calibration curve: […]
# [2] = Nonintrinsic dissolution in water; format: physicochemical
# Method: as §1, §2
# The rates of dissolution of SPM and SPA were compared. […] These studies were conducted by slurrying sieved (<75 μm) sodium phenytoin powder in pure water and measuring the concentrations in solution at various times by HPLC. Unfortunately, solid crystallized from the solutions withdrawn for analysis as they cooled, rendering the data invalid for determination of dissolution rate. Even so, all of the samples withdrawn contained about 5 mg/mL of sodium phenytoin, including those withdrawn 5 minutes after the slurries were prepared. […] A decrease in the concentration of dissolved sodium phenytoin with time is consistent with the reported reaction of sodium phenytoin with acids, even carbonic acid formed by dissolution of atmospheric carbon dioxide in water, to give relatively water-insoluble phenytoin.
# as §4, §5
# [3] = Drying of SPM under low pressure, XRPD of resulting solid; format: physicochemical; conditions: about 1 torr, ambient temperature, 24 hours
# Method: Any residual dichloromethane should evaporate readily from the solid under ambient conditions. To determine if solvent evaporation could be ensured by drying under low-pressure conditions, a portion of the SPM sample was kept under about 1 torr pressure at ambient temperature for 24 hours.
# [4] = Solid form interconversion under tableting pressure (XRPD); format: physicochemical; conditions: XRPD of crushed tablets
# Method: as §1, §3
# [5] = format: physicochemical
# Method: Both SPM and SPA were analyzed by x-ray powder diffraction (XRPD), infrared (IR) spectroscopy, solid-state nuclear magnetic resonance (SSNMR) spectroscopy, differential scanning calorimetry (DSC) and thermogravimetric analysis (TGA). The XRPD patterns of SPM and SPA are quite different and distinguishable. While the IR and SSNMR spectra of SPM and SPA are different, the differences are subtle. SPM and SPA behave quite differently on both DSC and TGA thermal analyses. SPA undergoes endothermic transitions at 364° C. and 409° C. that are accompanied by a weight loss of 72%.
smiles,measurement,setting,value
"O=C1NC(=O)C(c2ccccc2)(c2ccccc2)N1 [SPA, sodium phenytoin anhydrate, reference compound]","concentration, Run 1",[1]; 1 min,1730 ng/mL
same,"concentration, Run 2",[1]; 1 min,1680 ng/mL
same,"concentration, Run 3",[1]; 1 min,3360 ng/mL
same,"concentration, average",[1]; 1 min,2260 ng/mL
same,"concentration, Run 1",[1]; 5 min,11710 ng/mL
same,"concentration, Run 2",[1]; 5 min,12240 ng/mL
same,"concentration, Run 3",[1]; 5 min,19910 ng/mL
same,"concentration, average",[1]; 5 min,14620 ng/mL
same,"concentration, Run 1",[1]; 10 min,23270 ng/mL
same,"concentration, Run 2",[1]; 10 min,23840 ng/mL
same,"concentration, Run 3",[1]; 10 min,57430 ng/mL
same,"concentration, average",[1]; 10 min,34840 ng/mL
same,"concentration, Run 1",[1]; 20 min,47050 ng/mL
same,"concentration, Run 2",[1]; 20 min,60830 ng/mL
same,"concentration, Run 3",[1]; 20 min,144620 ng/mL
same,"concentration, average",[1]; 20 min,87170 ng/mL
same,"concentration, Run 1",[1]; 40 min,112230 ng/mL
same,"concentration, Run 2",[1]; 40 min,139740 ng/mL
same,"concentration, Run 3",[1]; 40 min,193120 ng/mL
same,"concentration, average",[1]; 40 min,148360 ng/mL
"O=C1NC(=O)C(c2ccccc2)(c2ccccc2)N1 [SPM, sodium phenytoin monohydrate]",amount of sodium phenytoin at extended reaction times versus earlier samples,[2]; 24 and 72 hours,appeared to be less than the amount found in the earlier samples
same,dissolution rate in water,[2]; nonintrinsic dissolution experiments,high enough that differences could not be determined
same,sodium phenytoin in samples withdrawn,"[2]; pure water, including 5 minutes after slurries were prepared, data invalid for dissolution rate",about 5 mg/mL
same,dissolution in water,"[2]; sieved powder (<75 μm), pure water",dissolve rapidly and extensively in water
same,"concentration, average","[1]; 1 min, monohydrate",3300 ng/mL
same,"concentration, Run 1","[1]; 1 min, monohydrate",2420 ng/mL
same,"concentration, Run 2","[1]; 1 min, monohydrate",2210 ng/mL
same,"concentration, Run 3","[1]; 1 min, monohydrate",5260 ng/mL
same,time to complete dissolution of tablets,[1]; 90% ethanol/10% water,15 to 40 min
same,dissolution rate relative to SPA,"[1]; 90% ethanol/10% water, high degree of imprecision",dissolves more rapidly than does SPA
same,"concentration, average","[1]; 5 min, monohydrate",39460 ng/mL
same,"concentration, Run 1","[1]; 5 min, monohydrate",44780 ng/mL
same,"concentration, Run 2","[1]; 5 min, monohydrate",25240 ng/mL
same,"concentration, Run 3","[1]; 5 min, monohydrate",48380 ng/mL
same,"concentration, average","[1]; 10 min, monohydrate",92380 ng/mL
same,"concentration, Run 1","[1]; 10 min, monohydrate",99180 ng/mL
same,"concentration, Run 2","[1]; 10 min, monohydrate",70050 ng/mL
same,"concentration, Run 3","[1]; 10 min, monohydrate",107910 ng/mL
same,"concentration, Run 2",[1]; 15 min,120280 ng/mL
same,"concentration, Run 3",[1]; 15 min,153220 ng/mL
same,"concentration, average",[1]; 15 min,136750 ng/mL
same,"concentration, average","[1]; 20 min, monohydrate",166110 ng/mL
same,"concentration, Run 1","[1]; 20 min, monohydrate",166110 ng/mL
same,form change on drying under low pressure,[3],these conditions caused dehydration
same,solid form interconversion under pressure used to make tablets,[4],no solid form interconversion occurred
same,stability and physical properties compared with sodium phenytoin anhydrate,[5],greatly improved stability and physical properties
